8 compounds from ChEMBL document CHEMBL5465560, “Selectivity Literature for EUbOPEN Chemogenomic Library” (2024) can be followed below.

A value given as a limit tells only on which side of the number the result lay.

The target of assay [1] is T1, Serine/threonine-protein kinase Sgk1 (Homo sapiens) (UniProt O00141).
T1 sequence (whole entry): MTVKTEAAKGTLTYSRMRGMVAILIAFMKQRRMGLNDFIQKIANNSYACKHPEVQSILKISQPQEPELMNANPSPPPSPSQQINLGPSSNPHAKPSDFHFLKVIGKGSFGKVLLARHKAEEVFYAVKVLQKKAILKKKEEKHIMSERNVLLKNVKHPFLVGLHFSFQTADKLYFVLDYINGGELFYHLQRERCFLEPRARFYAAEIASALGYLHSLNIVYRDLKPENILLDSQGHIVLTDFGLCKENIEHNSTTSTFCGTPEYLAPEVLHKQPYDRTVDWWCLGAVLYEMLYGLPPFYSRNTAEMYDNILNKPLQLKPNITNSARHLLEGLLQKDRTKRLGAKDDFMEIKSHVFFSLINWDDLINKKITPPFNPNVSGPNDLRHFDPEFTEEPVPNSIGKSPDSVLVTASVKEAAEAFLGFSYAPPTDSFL
As to the kind of experiment: Selectivity interaction (Kinase panel (Z-LYTE Assay)) EUB0001632a SGK1. Conditions: at 10 µM.

In assay [2] the target is 5-hydroxytryptamine receptor 2B (Homo sapiens, UniProt P41595). As to the kind of experiment: Selectivity interaction (Panel of non-epigenetic targets (kinases, GPCRs, ion channels, and transporters, Eurofins) ) EUB0000271b HTR2B. Conditions: at 1 µM.
The target of assay [3] is Ribosomal protein S6 kinase alpha-6 (Homo sapiens, UniProt Q9UK32). The assay can be described thus: Selectivity interaction (KinomeScan (DiscoverX)) EUB0000655a RPS6KA6. The following applies: at 10 µM.
Assay [4] concerns the target D(3) dopamine receptor (Homo sapiens, UniProt P35462). As to the kind of experiment: Selectivity interaction (GPCR panel (PDSP screen)) EUB0001079a DRD3. The following applies: at 10 µM.
Assay [5] addresses T2, Mitogen-activated protein kinase kinase kinase 5 (Homo sapiens) (UniProt Q99683).
T2 sequence (whole entry): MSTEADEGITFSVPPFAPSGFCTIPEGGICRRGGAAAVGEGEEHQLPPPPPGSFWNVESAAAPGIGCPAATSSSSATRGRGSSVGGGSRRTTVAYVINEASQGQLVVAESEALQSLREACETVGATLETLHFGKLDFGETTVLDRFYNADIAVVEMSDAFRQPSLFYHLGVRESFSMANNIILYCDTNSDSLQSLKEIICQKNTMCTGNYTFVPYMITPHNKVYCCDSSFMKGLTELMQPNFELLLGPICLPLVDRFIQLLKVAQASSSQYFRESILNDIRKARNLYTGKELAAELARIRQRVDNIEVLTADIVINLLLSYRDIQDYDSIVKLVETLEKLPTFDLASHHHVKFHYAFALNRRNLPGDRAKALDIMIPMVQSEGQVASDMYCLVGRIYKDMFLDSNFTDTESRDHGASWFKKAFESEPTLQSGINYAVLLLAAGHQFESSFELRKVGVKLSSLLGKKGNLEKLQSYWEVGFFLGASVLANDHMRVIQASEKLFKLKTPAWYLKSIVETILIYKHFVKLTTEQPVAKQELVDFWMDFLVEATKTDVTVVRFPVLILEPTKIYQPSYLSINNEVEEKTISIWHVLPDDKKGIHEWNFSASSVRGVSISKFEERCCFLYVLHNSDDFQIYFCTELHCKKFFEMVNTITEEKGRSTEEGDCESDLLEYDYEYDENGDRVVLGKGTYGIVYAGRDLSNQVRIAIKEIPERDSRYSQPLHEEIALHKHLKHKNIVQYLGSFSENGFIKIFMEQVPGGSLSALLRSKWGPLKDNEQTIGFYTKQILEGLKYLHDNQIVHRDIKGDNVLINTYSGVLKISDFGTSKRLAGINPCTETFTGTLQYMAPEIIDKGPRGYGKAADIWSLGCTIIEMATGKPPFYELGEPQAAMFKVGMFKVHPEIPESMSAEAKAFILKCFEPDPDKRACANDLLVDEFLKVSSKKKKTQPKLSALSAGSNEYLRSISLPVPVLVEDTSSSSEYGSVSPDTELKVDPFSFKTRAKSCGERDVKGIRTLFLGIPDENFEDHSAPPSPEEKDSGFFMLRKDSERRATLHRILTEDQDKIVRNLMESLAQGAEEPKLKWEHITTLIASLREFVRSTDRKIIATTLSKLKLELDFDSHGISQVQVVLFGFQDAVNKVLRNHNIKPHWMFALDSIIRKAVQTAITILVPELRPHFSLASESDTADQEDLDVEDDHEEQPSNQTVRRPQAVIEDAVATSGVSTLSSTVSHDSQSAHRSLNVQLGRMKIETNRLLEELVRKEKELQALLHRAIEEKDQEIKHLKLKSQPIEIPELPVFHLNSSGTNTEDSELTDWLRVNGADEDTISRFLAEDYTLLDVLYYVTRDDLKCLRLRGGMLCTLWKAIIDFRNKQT
The assay can be described thus: Selectivity interaction (ActivX KiNativ screen (kinase selectivity in THP-1 cell lysates)) EUB0000639a MAP3K5. Format: subcellular. The following applies: lysate, at 0.04 µM.

For assay [6], the target named is Interferon-induced, double-stranded RNA-activated protein kinase (Homo sapiens) (UniProt P19525). The assay can be described thus: Selectivity interaction (ActivX KiNativ screen (kinase selectivity in THP-1 cell lysates)) EUB0000639a EIF2AK2. Format: subcellular. The following applies: lysate, at 1 µM.
Assay [7] concerns the target Serine/threonine-protein kinase PLK3 (Homo sapiens, UniProt Q9H4B4). The assay can be described thus: Selectivity interaction (KinomeScan (DiscoverX)) EUB0001049a PLK3. The following applies: at 1 µM.
Assay [8] addresses Bromodomain adjacent to zinc finger domain protein 1A (Homo sapiens) (UniProt Q9NRL2). The assay can be described thus: Selectivity interaction (Human bromodomain panel (DSF assay)) EUB0000233b BAZ1A. Background: DSF heats the sample and reads unfolding from a dye or from intrinsic fluorescence.
Assay [9] addresses Bromodomain-containing protein 2 (Homo sapiens) (UniProt P25440). As to the kind of experiment: Selectivity interaction (Human bromodomain panel (DSF assay)) EUB0000233b BRD2.
The target of assay [10] is G protein-coupled receptor kinase 4 (Homo sapiens) (UniProt P32298). As to the kind of experiment: Selectivity interaction (KinomeScan (DiscoverX)) EUB0000045b GRK4.
Chain of G protein-coupled receptor kinase 4 (Homo sapiens) (P32298 whole entry, looked up): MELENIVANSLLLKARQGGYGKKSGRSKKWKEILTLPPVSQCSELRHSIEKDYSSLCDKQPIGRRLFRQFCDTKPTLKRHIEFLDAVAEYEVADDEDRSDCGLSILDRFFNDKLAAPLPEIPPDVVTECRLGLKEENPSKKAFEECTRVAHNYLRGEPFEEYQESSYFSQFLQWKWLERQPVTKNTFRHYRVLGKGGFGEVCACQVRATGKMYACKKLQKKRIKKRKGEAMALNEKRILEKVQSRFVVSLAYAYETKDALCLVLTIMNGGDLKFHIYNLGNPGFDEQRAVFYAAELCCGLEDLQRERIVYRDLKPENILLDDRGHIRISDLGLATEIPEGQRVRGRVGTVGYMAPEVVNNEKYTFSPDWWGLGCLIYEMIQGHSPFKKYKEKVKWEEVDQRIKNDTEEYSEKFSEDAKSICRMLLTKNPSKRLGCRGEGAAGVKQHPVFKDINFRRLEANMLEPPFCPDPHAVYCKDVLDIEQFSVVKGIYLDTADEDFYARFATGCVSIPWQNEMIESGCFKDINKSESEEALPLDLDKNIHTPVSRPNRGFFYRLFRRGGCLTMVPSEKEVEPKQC

Chain of Bromodomain adjacent to zinc finger domain protein 1A (Homo sapiens) (Q9NRL2 whole entry, the tested form may be a part): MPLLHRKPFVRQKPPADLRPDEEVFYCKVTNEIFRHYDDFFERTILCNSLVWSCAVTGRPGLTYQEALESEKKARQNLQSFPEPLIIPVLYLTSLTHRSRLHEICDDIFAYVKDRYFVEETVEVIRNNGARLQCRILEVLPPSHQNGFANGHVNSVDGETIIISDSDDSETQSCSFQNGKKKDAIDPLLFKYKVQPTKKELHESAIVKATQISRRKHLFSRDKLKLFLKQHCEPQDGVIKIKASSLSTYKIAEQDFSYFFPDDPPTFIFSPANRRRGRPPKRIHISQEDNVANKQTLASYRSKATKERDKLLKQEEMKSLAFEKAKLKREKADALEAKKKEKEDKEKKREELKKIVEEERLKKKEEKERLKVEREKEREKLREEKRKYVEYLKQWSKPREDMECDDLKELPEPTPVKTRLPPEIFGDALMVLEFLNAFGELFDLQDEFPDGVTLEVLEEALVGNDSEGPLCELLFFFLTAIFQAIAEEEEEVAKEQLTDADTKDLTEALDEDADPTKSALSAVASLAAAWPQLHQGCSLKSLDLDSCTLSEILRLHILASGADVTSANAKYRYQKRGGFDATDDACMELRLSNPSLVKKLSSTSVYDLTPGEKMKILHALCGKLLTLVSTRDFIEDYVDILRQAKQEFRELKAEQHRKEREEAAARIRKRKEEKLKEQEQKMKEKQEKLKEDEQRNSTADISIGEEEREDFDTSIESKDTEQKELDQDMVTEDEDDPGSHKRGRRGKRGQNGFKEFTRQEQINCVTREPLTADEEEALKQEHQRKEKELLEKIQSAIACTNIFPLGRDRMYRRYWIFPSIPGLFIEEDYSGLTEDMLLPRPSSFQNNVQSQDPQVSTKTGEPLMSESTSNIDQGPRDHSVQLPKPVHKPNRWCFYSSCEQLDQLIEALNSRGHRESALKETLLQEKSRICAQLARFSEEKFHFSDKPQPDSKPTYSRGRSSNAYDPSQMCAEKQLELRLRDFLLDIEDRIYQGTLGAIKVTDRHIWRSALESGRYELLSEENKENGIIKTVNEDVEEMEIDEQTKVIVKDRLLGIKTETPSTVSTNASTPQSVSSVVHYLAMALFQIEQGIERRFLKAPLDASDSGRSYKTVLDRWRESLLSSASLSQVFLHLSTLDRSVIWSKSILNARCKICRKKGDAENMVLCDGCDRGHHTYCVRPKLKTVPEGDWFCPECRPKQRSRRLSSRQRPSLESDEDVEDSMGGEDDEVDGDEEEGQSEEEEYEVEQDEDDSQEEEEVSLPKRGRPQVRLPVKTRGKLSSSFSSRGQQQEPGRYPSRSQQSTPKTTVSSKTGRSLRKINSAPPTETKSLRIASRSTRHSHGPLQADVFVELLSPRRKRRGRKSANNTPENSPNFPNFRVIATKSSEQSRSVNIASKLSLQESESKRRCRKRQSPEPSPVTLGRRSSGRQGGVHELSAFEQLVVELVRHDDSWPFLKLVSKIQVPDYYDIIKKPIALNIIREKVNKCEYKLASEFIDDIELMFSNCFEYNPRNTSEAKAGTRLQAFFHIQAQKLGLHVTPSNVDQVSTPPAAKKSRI
Chain of Serine/threonine-protein kinase PLK3 (Q9H4B4 whole entry, looked up, the tested form may be a part): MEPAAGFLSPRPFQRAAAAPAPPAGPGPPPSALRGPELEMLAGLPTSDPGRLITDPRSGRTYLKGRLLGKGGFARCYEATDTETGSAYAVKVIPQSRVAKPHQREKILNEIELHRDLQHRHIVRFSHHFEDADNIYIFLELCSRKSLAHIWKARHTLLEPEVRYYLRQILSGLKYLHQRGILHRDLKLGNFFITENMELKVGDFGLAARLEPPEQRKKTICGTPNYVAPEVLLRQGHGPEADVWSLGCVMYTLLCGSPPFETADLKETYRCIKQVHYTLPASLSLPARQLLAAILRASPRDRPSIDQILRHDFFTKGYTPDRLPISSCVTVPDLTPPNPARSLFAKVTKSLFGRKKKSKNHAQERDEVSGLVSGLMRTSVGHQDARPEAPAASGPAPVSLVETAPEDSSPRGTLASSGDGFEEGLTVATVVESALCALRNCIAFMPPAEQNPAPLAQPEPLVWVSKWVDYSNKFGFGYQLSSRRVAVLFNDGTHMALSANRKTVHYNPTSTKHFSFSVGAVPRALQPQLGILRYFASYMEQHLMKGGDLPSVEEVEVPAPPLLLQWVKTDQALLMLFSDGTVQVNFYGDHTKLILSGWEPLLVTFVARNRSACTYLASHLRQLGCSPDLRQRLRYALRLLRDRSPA
Chain of D(3) dopamine receptor (P35462 whole entry): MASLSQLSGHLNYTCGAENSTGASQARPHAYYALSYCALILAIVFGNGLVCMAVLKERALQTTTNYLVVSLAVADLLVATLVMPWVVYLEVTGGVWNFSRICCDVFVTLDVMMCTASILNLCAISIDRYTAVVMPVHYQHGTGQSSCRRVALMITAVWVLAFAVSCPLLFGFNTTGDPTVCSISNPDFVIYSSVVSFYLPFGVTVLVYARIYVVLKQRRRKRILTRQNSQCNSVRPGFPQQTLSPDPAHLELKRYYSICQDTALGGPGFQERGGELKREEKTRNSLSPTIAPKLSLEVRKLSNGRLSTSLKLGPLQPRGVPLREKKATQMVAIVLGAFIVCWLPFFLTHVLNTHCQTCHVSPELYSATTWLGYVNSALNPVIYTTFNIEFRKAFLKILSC
Chain of Bromodomain-containing protein 2 (Homo sapiens) (P25440 whole entry, looked up): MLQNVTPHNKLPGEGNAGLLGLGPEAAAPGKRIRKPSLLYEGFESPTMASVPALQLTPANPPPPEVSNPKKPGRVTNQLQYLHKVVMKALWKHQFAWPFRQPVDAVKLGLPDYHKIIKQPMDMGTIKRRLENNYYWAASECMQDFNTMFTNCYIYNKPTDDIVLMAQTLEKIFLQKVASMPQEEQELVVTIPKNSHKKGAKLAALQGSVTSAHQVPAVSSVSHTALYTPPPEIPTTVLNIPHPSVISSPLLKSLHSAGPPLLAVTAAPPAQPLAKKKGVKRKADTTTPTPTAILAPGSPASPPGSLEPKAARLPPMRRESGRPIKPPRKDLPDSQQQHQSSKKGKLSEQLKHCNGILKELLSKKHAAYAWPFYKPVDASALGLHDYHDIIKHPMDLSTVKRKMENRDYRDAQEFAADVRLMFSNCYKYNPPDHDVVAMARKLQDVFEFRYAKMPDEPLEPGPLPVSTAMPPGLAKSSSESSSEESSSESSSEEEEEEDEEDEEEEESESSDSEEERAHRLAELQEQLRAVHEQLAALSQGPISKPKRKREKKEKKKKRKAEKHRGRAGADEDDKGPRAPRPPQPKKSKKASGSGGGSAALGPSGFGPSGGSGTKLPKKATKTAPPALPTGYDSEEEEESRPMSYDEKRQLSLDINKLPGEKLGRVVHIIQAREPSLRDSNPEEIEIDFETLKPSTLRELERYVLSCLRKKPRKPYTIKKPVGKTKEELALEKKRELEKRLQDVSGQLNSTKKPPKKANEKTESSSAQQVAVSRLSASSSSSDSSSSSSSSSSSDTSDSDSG
Chain of Interferon-induced, double-stranded RNA-activated protein kinase (Homo sapiens) (P19525 whole entry): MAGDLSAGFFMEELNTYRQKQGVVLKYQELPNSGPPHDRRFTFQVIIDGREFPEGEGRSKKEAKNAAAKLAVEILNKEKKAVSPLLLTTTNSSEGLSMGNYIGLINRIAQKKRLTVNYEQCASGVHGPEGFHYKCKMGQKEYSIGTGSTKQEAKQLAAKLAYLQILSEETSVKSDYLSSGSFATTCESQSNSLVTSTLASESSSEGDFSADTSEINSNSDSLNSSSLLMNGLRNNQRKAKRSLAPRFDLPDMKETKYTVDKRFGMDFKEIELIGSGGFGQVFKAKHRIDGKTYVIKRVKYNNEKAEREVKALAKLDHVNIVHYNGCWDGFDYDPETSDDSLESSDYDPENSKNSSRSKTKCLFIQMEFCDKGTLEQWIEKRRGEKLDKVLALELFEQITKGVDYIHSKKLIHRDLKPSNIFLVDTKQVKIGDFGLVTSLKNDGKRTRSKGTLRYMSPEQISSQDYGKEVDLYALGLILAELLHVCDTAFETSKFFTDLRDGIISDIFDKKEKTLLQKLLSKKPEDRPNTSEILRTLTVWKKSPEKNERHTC
Chain of 5-hydroxytryptamine receptor 2B (P41595 whole entry): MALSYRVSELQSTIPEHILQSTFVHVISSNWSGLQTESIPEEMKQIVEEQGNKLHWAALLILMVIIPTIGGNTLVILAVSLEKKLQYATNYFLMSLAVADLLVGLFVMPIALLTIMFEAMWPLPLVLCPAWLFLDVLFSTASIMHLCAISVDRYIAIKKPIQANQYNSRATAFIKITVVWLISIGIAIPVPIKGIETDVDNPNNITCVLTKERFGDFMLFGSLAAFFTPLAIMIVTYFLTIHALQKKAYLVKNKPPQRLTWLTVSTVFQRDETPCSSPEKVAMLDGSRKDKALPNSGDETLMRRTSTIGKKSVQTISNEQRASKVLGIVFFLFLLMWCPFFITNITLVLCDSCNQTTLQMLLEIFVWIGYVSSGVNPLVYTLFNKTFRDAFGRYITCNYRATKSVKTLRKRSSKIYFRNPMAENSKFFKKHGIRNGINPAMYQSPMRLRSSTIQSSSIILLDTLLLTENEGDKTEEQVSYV

Consider `Cn1cc(-n2cnc3c(NCc4nc5cc(Cl)c(Cl)cc5[nH]4)nc(N4CCOCC4)nc32)cn1`, for which the % of control in assay [1] was 28%.

As for `Cc1cc(C)cc([C@@H]2c3cc(C)ccc3NC(=O)CN2C(=O)c2ccc(Br)s2)c1`, the % of inhibition in assay [2] was 1%. Take `CN(C)CCOc1ccc(-c2nc(-c3ccncc3)c(-c3ccc4c(c3)CC/C4=N\O)[nH]2)cc1`: the % of control in assay [3] amounted to 88%. Turning to `Nc1cnc(N2CCc3cc(S(=O)(=O)Nc4c(F)cc(Cl)cc4F)cc(N4CCCC4=O)c32)nc1` [TP-020n], in assay [4], the % of inhibition is 7.41%. Take `CC[C@@H]1[C@H](F)C(=O)N[C@@H]1COc1nccc2cc(C(N)=O)c(OC)cc12` [ZIMLOVISERTIB]: the figures for the % of inhibition in assay [5] and in [6] were -7.7% and -3.7%, respectively.

As for `COc1cc(Nc2nc(C)cc(-c3cnn4nc(OC)ccc34)n2)cc(C(F)(F)F)c1`, the % of control in assay [7] worked out at 72%. With `CN(C)CCCOc1ccc(-c2cc(NCCCn3cccn3)nc(S(C)(=O)=O)n2)cc1`, the dTM in [8] and in assay [9] was < 2 K each time. For the compound `C=CC(=O)Nc1cc(-n2c(=O)ccc3cnc4ccc(-c5ccc(NS(C)(=O)=O)cc5)cc4c32)ccc1C`, the % of control in assay [10] (at 1 µM) came out at 100%; in assay [10] (at 10 µM), 66%.
